Experimental data taken from patent US11407748B2, “Substituted pyrido[1,2-a]pyrimidines and pyrazino[1,2-a]pyrimidines for enhancing AMPA receptor function” (Takeda Pharmaceutical Company Limited, priority 2017, dated 2022).

The compounds below were run against T1, hGluR1 flip (Homo sapiens, UniProt P42261) (assay: AMPA receptor function-enhancing activity using calcium influx as index). Details: test compound 30 μM with 3 mM glutamic acid; CHO-K1/GluR1 flip/stargazin-expressing cells; 100% = 3 mM glutamic acid + 300 μM cyclothiazide, 0% = 3 mM glutamic acid alone.
T1 construct: expressed in transfected cells; host or cells: CHO-K1
Type: cell-based
Excerpt: Experimental Example 1 Measurement Method of AMPA Receptor Function-Enhancing Activity of Compound Using Calcium Influx as Index
(1) Construction of Expression Gene
Human GluR^1 flip cDNA was amplified by PCR method using forward primer […] (SEQ ID NO: 1) and reverse primer […] (SEQ ID NO: 2) artificially synthesized using human brain-derived cDNA (BD Bioscience) as a template. The amplified product was digested with restriction enzymes EcoRI, NotI (TAKARA SHUZO CO. LTD.) and incorporated into the same site of pcDNA3.1 (+) (Invitrogen) to construct pcDNA3.1(+)/human GluR1 flip gene. Human stargazin cDNA was amplified by PCR method using forward primer […] (SEQ ID NO: 3) and reverse primer […] (SEQ ID NO: 4) artificially synthesized using human hippocampus cDNA as a template. The amplified product was digested with restriction enzymes XhoI, BamHI (TAKARA SHUZO CO. LTD.) and incorporated into the same site of pcDNA3.1(−) (Invitrogen) to construct pcDNA3.1 Zeo(−)/human stargazing gene.
(2) Construction of GluR1 Flip/Stargazin Expressing Cell
CHO-K1 cells passaged in a culture medium (Ham's F12 medium (Invitrogen) added with 10% inactivated fetal bovine serum (Morgate) and penicillin, streptomycin (Invitrogen)) were detached using 0.05% trypsin and 0.53 mM EDTA (Invitrogen) diluted with D-PBS(−). The detached cells were suspended in a culture medium, and recovered by centrifugation at 1,000 rpm. The recovered cells were re-suspended in D-PBS(−) and added into 0.4 cm electroporation cuvette (BioRad). pcDNA3.1(+)/human GluR1 flip gene (5 μg) and pcDNA3.1 Zeo(−)/human stargazin gene (15 μg) were added, and introduced into CHO-K1 cells under the conditions of 950 μFd, […] and using Gene Pulser II (BioRad). The introduced cells were cultured overnight in a culture medium. The next day, using a selection medium (culture medium added with zeocin (Invitrogen) at 250 μg/mL), the cells were plated in a 96 well plate at 250 cells/well. The clones showing drug resistance were selected, and GluR1 flip/stargazin expression clones were selected by an assay method shown below using calcium influx as an index.
(3) Measurement Method of AMPA Receptor Function-Enhancing Activity of Compound, Using Calcium Influx as an Index
CHO-K1/GluR1 flip/stargazin-expressing cells were plated on a 384 well black bottom transparent plate, and cultured for 2 days in a CO2 incubator (SANYO ELECTRIC Co. Ltd.) at 37° C. The medium of the cell plate was removed. A calcium indicator (Calcium5 Assay Kit, Molecular Devices) was diluted with an assay buffer (HESS (Thermo Fisher Scientific), 0.1% BSA (Merck Millipoer) and 10 mM HEPES (Thermo Fisher Scientific)), and 1.25 mM probenecid (Dojindo Laboratories) was added thereto. The mixture prepared above was added at 30 μL/well (100 μL/well in case of 96 wells) to the well, and the well was left standing in 37° C., CO2 incubator for 1 hr. The cell plate was set in CellLux (PerkinElmer), a mixture (15 μL) (50 μL/well in case of 96 wells) of 9 mM glutamic acid (final concentration 3 mM) diluted with an assay buffer and a test compound (test compound concentration 30 μM) was added thereto, and variation in the amount of fluorescence was measured for 3 min. The variation of fluorescence level of a well added with final concentration 3 mM of glutamic acid and 300 μM cyclothiazide (TOCRIS) was defined as 100%, the variation of fluorescence level of a well added with final concentration 3 mM of glutamic acid alone was defined as 0%, and the activity of the compound was calculated by the following formula. activity (%)=(X−C)/(T−C)×100 • T: variation of fluorescence level of well added with final concentration 3 mM of glutamic acid and 300 μM cyclothiazide • C: variation of fluorescence level of well added with final concentration 3 mM of glutamic acid alone • X: variation of fluorescence level of well added with test compound

T1 sequence (P42261 19-906 isoform P42261-2 limits assumed): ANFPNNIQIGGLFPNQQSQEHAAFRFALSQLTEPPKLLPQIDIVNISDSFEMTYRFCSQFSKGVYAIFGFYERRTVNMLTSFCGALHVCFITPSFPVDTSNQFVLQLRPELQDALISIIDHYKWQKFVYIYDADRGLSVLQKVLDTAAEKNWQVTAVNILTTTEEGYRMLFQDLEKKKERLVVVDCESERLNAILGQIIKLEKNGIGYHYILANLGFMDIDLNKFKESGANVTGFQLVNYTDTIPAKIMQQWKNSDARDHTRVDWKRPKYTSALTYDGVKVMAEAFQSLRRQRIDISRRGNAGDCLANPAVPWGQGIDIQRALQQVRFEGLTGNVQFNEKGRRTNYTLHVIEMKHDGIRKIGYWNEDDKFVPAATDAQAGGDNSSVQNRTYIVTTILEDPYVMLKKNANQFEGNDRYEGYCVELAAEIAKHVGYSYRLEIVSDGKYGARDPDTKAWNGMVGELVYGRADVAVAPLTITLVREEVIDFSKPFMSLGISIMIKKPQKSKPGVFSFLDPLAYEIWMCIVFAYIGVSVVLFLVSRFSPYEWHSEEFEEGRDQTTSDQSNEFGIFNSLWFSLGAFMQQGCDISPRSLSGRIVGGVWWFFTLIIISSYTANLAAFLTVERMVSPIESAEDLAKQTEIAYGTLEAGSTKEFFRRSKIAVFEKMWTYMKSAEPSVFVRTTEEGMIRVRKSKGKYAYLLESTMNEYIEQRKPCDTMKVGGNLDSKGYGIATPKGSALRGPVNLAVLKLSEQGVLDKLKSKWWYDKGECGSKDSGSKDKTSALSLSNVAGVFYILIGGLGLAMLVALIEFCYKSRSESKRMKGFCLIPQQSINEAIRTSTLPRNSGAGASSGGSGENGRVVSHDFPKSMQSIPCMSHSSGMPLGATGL
T1 sequence (Q9Y698 whole entry partner): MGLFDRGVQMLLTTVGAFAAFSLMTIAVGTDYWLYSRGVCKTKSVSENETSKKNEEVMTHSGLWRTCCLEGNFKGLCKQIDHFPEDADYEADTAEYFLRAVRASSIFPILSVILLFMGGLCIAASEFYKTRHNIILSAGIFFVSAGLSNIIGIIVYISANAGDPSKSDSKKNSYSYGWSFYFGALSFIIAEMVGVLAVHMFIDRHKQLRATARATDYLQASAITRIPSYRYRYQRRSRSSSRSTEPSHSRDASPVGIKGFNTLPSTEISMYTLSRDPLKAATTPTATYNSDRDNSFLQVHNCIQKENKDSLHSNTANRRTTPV

Compound	activation at 30 µM [%]
CN(CC(F)F)C(=O)c1ccc(-c2cccn3c(=O)cc(C(F)(F)F)nc23)cc1 [Example 2, N-(2,2-difluoroethyl)-N-methyl-4-(4-oxo-2-(trifluoromethyl)-4H-pyrido[1,2-a]pyrimidin-9-yl)benzamide]	103
O=C(c1ccc(-c2cccn3c(=O)c(Br)c(C(F)(F)F)nc23)cc1)N1CCc2cccnc21 [Example 65, 3-bromo-9-(4-(2,3-dihydro-1H-pyrrolo[2,3-b]pyridin-1-ylcarbonyl)phenyl)-2-(trifluoromethyl)-4H-pyrido[1,2-a]pyrimidin-4-one]	74.6
CN(CCC#N)C(=O)c1ccc(-c2cccn3c(=O)c(Cl)c(C(F)(F)F)nc23)cc1 [Example 39, 4-(3-chloro-4-oxo-2-(trifluoromethyl)-4H-pyrido[1,2-a]pyrimidin-9-yl)-N-(2-cyanoethyl)-N-methylbenzamide]	85.9
Cc1c(C(F)(F)F)nc2c(-c3ccc(C(=O)N4CC(F)(F)C4)cc3)cccn2c1=O [Example 24, 9-(4-((3,3-difluoroazetidin-1-yl)carbonyl)phenyl)-3-methyl-2-(trifluoromethyl)-4H-pyrido[1,2-a]pyrimidin-4-one]	76.9
Cc1c(C(F)(F)F)nc2c(-c3ccc(C(=O)N4CCOC(C(F)F)C4)cc3)cccn2c1=O (centres unmarked) [Example 23, 9-(4-((2-(difluoromethyl)morpholin-4-yl)carbonyl)phenyl)-3-methyl-2-(trifluoromethyl)-4H-pyrido[1,2-a]pyrimidin-4-one]	83.5
O=C(NC1CCOCC1)c1ccc(-c2cccn3c(=O)cc(C(F)(F)F)nc23)cc1 [Example 123, 4-(4-oxo-2-(trifluoromethyl)-4H-pyrido[1,2-a]pyrimidin-9-yl)-N-(tetrahydro-2H-pyran-4-yl)benzamide]	83.2
Cc1c(C(F)(F)F)nc2c(-c3ccc(C(=O)N4CCC(C#N)C4)cc3)cccn2c1=O (centres unmarked) [Example 121, 1-(4-(3-methyl-4-oxo-2-(trifluoromethyl)-4H-pyrido[1,2-a]pyrimidin-9-yl)benzoyl)pyrrolidine-3-carbonitrile]	84.4
O=C(c1ccc(-c2cccn3c(=O)cc(C(F)(F)F)nc23)cc1)N1CCC(O)C(F)(F)C1 (centres unmarked) [Example 10, 9-(4-((3,3-difluoro-4-hydroxypiperidin-1-yl)carbonyl)phenyl)-2-(trifluoromethyl)-4H-pyrido[1,2-a]pyrimidin-4-one]	72.7
O=C(c1ccc(-c2cccn3c(=O)cc(C(F)(F)F)nc23)cc1)N1CCCC(F)(F)C1 [Example 3, 9-(4-((3,3-difluoropiperidin-1-yl)carbonyl)phenyl)-2-(trifluoromethyl)-4H-pyrido[1,2-a]pyrimidin-4-one]	74.8
O=C(c1ccc(-c2cccn3c(=O)cc(C(F)(F)F)nc23)cc1)N1CCCC(O)(C(F)(F)F)C1 (centres unmarked) [Example 36, 9-(4-((3-hydroxy-3-(trifluoromethyl)piperidin-1-yl)carbonyl)phenyl)-2-(trifluoromethyl)-4H-pyrido[1,2-a]pyrimidin-4-one]	101
Cc1c(C(F)(F)F)nc2c(-c3ccc(C(=O)N(C)CCC#N)cc3)cccn2c1=O [Example 100, N-(2-cyanoethyl)-N-methyl-4-(3-methyl-4-oxo-2-(trifluoromethyl)-4H-pyrido[1,2-a]pyrimidin-9-yl)benzamide]	89.2

Other lines, results leading:

activation at 30 µM [%]	Compound
77.3	O=C(c1ccc(-c2cccn3c(=O)c(Br)c(C(F)(F)F)nc23)cc1F)N1CCOCC1 [Example 46, 3-bromo-9-(3-fluoro-4-(morpholin-4-ylcarbonyl)phenyl)-2-(trifluoromethyl)-4H-pyrido[1,2-a]pyrimidin-4-one]
89.3	CO[C@@H]1CCN(C(=O)c2ccc(-c3cccn4c(=O)c(C)c(C(F)(F)F)nc34)cc2F)C1 [Example 90, 9-(3-fluoro-4-(((3R)-3-methoxypyrrolidin-1-yl)carbonyl)phenyl)-3-methyl-2-(trifluoromethyl)-4H-pyrido[1,2-a]pyrimidin-4-one]
88.2	C[C@@H]1CN(C(=O)c2ccc(-c3cccn4c(=O)c(Br)c(C(F)(F)F)nc34)cc2F)CCO1 [Example 74, 3-bromo-9-(3-fluoro-4-(((2R)-2-methylmorpholin-4-yl)carbonyl)phenyl)-2-(trifluoromethyl)-4H-pyrido[1,2-a]pyrimidin-4-one]
87.9	C[C@H]1CN(C(=O)c2ccc(-c3cccn4c(=O)c(Br)c(C(F)(F)F)nc34)cc2F)CCO1 [Example 73, 3-bromo-9-(3-fluoro-4-(((2S)-2-methylmorpholin-4-yl)carbonyl)phenyl)-2-(trifluoromethyl)-4H-pyrido[1,2-a]pyrimidin-4-one]
78.9	O=C(N[C@H]1CCCOC1)c1ccc(-c2cccn3c(=O)c(Br)c(C(F)(F)F)nc23)cc1 [Example 92, 4-(3-bromo-4-oxo-2-(trifluoromethyl)-4H-pyrido[1,2-a]pyrimidin-9-yl)-N-((3S)-tetrahydro-2H-pyran-3-yl)benzamide]
101	COC1CCN(C(=O)c2ccc(-c3cccn4c(=O)c(C)c(C(F)(F)F)nc34)cc2F)CC1 [Example 87, 9-(3-fluoro-4-((4-methoxypiperidin-1-yl)carbonyl)phenyl)-3-methyl-2-(trifluoromethyl)-4H-pyrido[1,2-a]pyrimidin-4-one]
93.3	Cc1c(C(F)(F)F)nc2c(-c3ccc(C(=O)N4CCCOCC4)c(F)c3)cccn2c1=O [Example 76, 9-(3-fluoro-4-(1,4-oxazepan-4-ylcarbonyl)phenyl)-3-methyl-2-(trifluoromethyl)-4H-pyrido[1,2-a]pyrimidin-4-one]
87.9	Cc1c(C(F)(F)F)nc2c(-c3ccc(C(=O)N[C@H]4CCCOC4)c(F)c3)cccn2c1=O [Example 115, 2-fluoro-4-(3-methyl-4-oxo-2-(trifluoromethyl)-4H-pyrido[1,2-a]pyrimidin-9-yl)-N-((3S)-tetrahydro-2H-pyran-3-yl)benzamide]
103	Cc1c(C(F)(F)F)nc2c(-c3ccc(C(=O)N[C@H]4CCOC4)c(F)c3)cccn2c1=O [Example 86, 2-fluoro-4-(3-methyl-4-oxo-2-(trifluoromethyl)-4H-pyrido[1,2-a]pyrimidin-9-yl)-N-((3S)-tetrahydrofuran-3-yl)benzamide]
86.3	O=C(NC1CCOCC1)c1ccc(-c2cccn3c(=O)c(Br)c(C(F)(F)F)nc23)cc1F [Example 124, 4-(3-bromo-4-oxo-2-(trifluoromethyl)-4H-pyrido[1,2-a]pyrimidin-9-yl)-2-fluoro-N-(tetrahydro-2H-pyran-4-yl)benzamide]
90.3	COC1CCN(C(=O)c2ccc(-c3cccn4c(=O)c(Br)c(C(F)(F)F)nc34)cc2F)CC1 [Example 88, 3-bromo-9-(3-fluoro-4-((4-methoxypiperidin-1-yl)carbonyl)phenyl)-2-(trifluoromethyl)-4H-pyrido[1,2-a]pyrimidin-4-one]
74.9	Cc1c(C(F)(F)F)nc2c(-c3ccc(C(=O)N4CCOCC4)cc3)cccn2c1=O [Example 37, 3-methyl-9-(4-(morpholin-4-ylcarbonyl)phenyl)-2-(trifluoromethyl)-4H-pyrido[1,2-a]pyrimidin-4-one]
